Measured values from ChEMBL document CHEMBL3414492, “Enhancing the cellular anti-proliferation activity of pyridazinones as c-met inhibitors using docking analysis” (Eur J Med Chem, 2015).
Calls of active or inactive are those of the source. The rule behind the calls is not given here.

Tests used:
[1] = Inhibition of cell proliferation of human EBC1 cells after 72 hrs by SRB assay; conditions: EBC-1, 72 h
EBC-1 = assay: Inhibition of cell proliferation of human EBC1 cells at 10 uM after 72 hrs by SRB assay; assay type: functional
[2] = molecular target: T1, Hepatocyte growth factor receptor (Homo sapiens, UniProt P08581); assay: Inhibition of recombinant c-Met (unknown origin) using poly (Glu,Tyr)4:1 substrate incubated for 60 mins by ELISA method
[3] = molecular target: T1, Hepatocyte growth factor receptor; assay: Inhibition of recombinant c-Met (unknown origin) at 10 uM using poly (Glu,Tyr)4:1 substrate incubated for 60 mins by ELISA method
[4] = molecular target: T1, Hepatocyte growth factor receptor; assay: Inhibition of c-Met (unknown origin)

Row | SMILES | IC50 [1] | inhibition (EBC-1) | also measured
1 | CN1CCN(CCOc2cnc(-c3cccc(Cn4nc(-n5ccc6ccc(F)cc65)ccc4=O)c3)nc2)CC1 | 130 nM |  | 
2 | CN(C)CCCCOC(=O)Nc1cccc(Cn2nc(Nc3ccc(F)cc3)ccc2=O)c1 |  | inactive | 
3 | Cc1ccccc1Nc1ccc(=O)n(Cc2ccccc2NC(=O)OCCCCN(C)C)n1 |  |  | IC50 [2]: > 10000 nM
4 | CN1CCN(CCCCCOC(=O)Nc2cccc(Cn3nc(-n4ccc5ccc(F)cc54)ccc3=O)c2)CC1 | ≤ 1000 nM |  | 
5 | O=C(Nc1cccc(Cn2nc(-n3ccc4ccc(F)cc43)ccc2=O)c1)OCCCCn1cccn1 | ≤ 1000 nM |  | 
6 | Cc1ccc(Nc2ccc(=O)n(Cc3cccc(NC(=O)OCCCCN(C)C)c3)n2)cc1 |  | inactive | inhibition [3]: 55.5%
7 | CN1CCN(CCCOc2cnc(-c3cccc(Cn4nc(-n5ccc6ccc(F)cc65)ccc4=O)c3)nc2)CC1 | 198 nM |  | 
8 | Nc1ccc(Cn2nc(Nc3ccccc3)ccc2=O)cc1 |  |  | IC50 [4]: 10000 nM
9 | CN(C)CCCCOC(=O)Nc1cccc(Cn2nc(Nc3ccccc3)ccc2=O)c1 | > 10000 nM | inactive | 
10 | CN(C)CCCCCOC(=O)Nc1cccc(Cn2nc(-n3ccc4ccc(F)cc43)ccc2=O)c1 | ≤ 100 nM |  | 
11 | CN(C)CCCCOC(=O)Nc1cccc(Cn2nc(Nc3cccc(F)c3)ccc2=O)c1 |  | inactive | 
12 | CN(C)CCCCOC(=O)Nc1cccc(Cn2nc(Nc3ccc(C(F)(F)F)cc3)ccc2=O)c1 |  | inactive | 
13 | CN(C)CCCCOC(=O)Nc1cccc(Cn2nc(Nc3cccc(C(F)(F)F)c3)ccc2=O)c1 |  | inactive | 
14 | CN(C)CCCCOC(=O)Nc1cccc(Cn2nc(Nc3ccccc3F)ccc2=O)c1 |  | inactive | 
15 | CCOC(=O)Nc1cccc(Cn2nc(-n3ccc4ccc(F)cc43)ccc2=O)c1 |  |  | IC50 [2]: > 10000 nM
16 | CN(C)CCCCOC(=O)Nc1cccc(Cn2nc(-n3ccc4ccc(F)cc43)ccc2=O)c1 | ≤ 1000 nM |  | 
17 | CN(C)CCOCCOC(=O)Nc1cccc(Cn2nc(-n3ccc4ccc(F)cc43)ccc2=O)c1 | ≤ 1000 nM |  | 
18 | CN(C)CCCCOC(=O)Nc1cccc(Cn2nc(Nc3cc(F)cc(F)c3)ccc2=O)c1 |  | inactive | 
